Positions of bridges follow the written chain, without caps; N, C: chain ends. Non-standard residues stand in square brackets, D forms with d. Residues, ends and D or L forms follow the SMILES beside them. *: point of attachment. Picolinoyl = O=C(c1ccccn1)*; Aib = CC(C)(N)C(=O)O
Columns and labels:
[1] = system: TNF-α content in conditioned media of LPS-treated BV2 microglial cells; assay: In vitro TNF-α inhibitory activity in LPS-treated BV2 microglial cells; type: cell-based; settings: compound 45 min before LPS, 24 h incubation, TNF-α in supernatant, read-out: IC50 for reducing LPS-induced TNF-α content by half
Protocol: To measure the efficacy of the biological activity of Compound 1, an in vitro assay was employed to measure TNF-α content in conditioned media of cells treated with lipopolysaccharide (LPS) and different concentrations of Compound 1. 1 mg of Compound 1 peptide compound was added to 3.333 mL of physiological saline to make a 189 μM peptide solution which is sterilized by filtration through a 0.22 μm membrane filter. For treatment of cells, threefold serial dilutions were made, yielding concentrations of 189, 63, 21, 7, 2.3, and 0.76 μM peptide solution.
BV2 cells were recovered and passaged more than 3 times. 1.2×10^6 BV2 microglial cells in good growth state and in the logarithmic growth phase were diluted to […] cells/mL with DMEM medium containing 10% FBS, and 400 μL of cell suspension was inoculated into each well of a 48-well cell culture plate. […]

[2] = system: TNF-α content in the blood of LPS-treated ICR mice; assay: In vivo TNF-α inhibitory activity in LPS-treated mice; settings: ICR male mice, IV compound 30 min before IV LPS 5 μg/kg, blood collected 1.5 hours after LPS
Protocol: To measure the efficacy of the biological activity of Compound 1, an in vivo assay was employed to measure TNF-α content in the blood of whole mice treated with lipopolysaccharide (LPS) and different concentrations of Compound 1. 56 ICR male mice, 12-14 g, were acclimated to the animal facility for 7 days and were then randomized into 8 groups with 7 mice/group to receive doses of 0, 0.001, 0.003, 0.01, 0.03, 0.1, 0.3, and 1.0 mg/kg of compound. Each dose group received intravenous (IV) injection of different concentrations of Compound 1 peptide solution at a dosing volume of 10 mL/kg. 30 min later, IV LPS at a dose of 5 μg/kg and at a volume of 10 ml/kg was administered. 1.5 hours after administration of LPS, whole blood was collected from the orbit of ICR mice, centrifuged at 4000 rpm for 10 min, and the supernatant was collected and used for TNF-α content detection from each of the different Compound 1 doses. (TNF-α detection kit, Unitech biological item number: 70-EK282/3-96).

IC50 [1]: ~1020 nM
Compound: CC(C)CC1NC(=O)C(CC(C)C)NC(=O)C(CCCNC(=N)N)NC(=O)C(CCCCN)NC(=O)C(C)(C)NC(=O)C(CC(C)C)NC(=O)C(CCCCN)NC(=O)C(CCCNC(=N)N)NC(=O)C(CC(C)C)NC(=O)C(NC(=O)C(CO)NC(=O)C(C)NC(=O)c2ccccn2)CSSCC(C(N)=O)NC1=O (stereo not drawn) [Compound 1, picolinyl-Ala-Ser-cyclo[Cys-LRKL-Aib-KRLL-Cys]-NH2] (Picolinoyl-ASCLRKL[Aib]KRLLC-NH2; disulfide 3-13; configuration not given here)
ED50 (Effective Dose at which a 50% reduction in blood TNF-α content was found) [2]: 0.045 mg/kg
